Reference: publication PMC3082957 (ACS chemical neuroscience, 2011)

What was measured:
Assay type in all cases: cell-based
[1] = test system: voltage-gated Na+ channels in CAD cells
[2] = test system: voltage-gated Na+ channels in CAD cells; conditions: for fraction of channels in a slow-inactivated state (1 minus the normalized INa): at −50 mV
[3] = test system: voltage-gated Na+ channels in CAD cells; conditions: 100 µM
[4] = test system: voltage-gated Na+ channels in CAD cells; remark: listed apart in the source
[5] = test system: voltage-gated Na+ channels in CAD cells; experiment: Frequency; conditions: 100 µM; 30 pulses at 10 Hz, holding −80 mV
[6] = test system: voltage-gated Na+ channels in CAD cells; experiment: Rate of development of inhibition/slow inactivation of Na+ currents in CAD cells; conditions: 100 µM; vehicle 0.51 ± 0.08
[7] = 30 µM, UV irradiation, then washed 5 min

| Structure (SMILES) | block of Na+ current [1] | fraction of channels in a slow-inactivated state (1 minus the normalized INa) ([2]; 100 µM) | IC50 for slow inactivation, fold lower compared with (R)-1 ([2]; CAD cells, versus IC50 85 µM of (R)-1) | slope (k) of fast inactivation curve, shallower than DMSO-treated cells ([3]; p<0.05) | Na+ channels remaining in a slow-inactivated state [4, 7] | recovery of current amplitude at −10 mV compared with DMSO control or UV alone [4, 7] | Na+ channels accumulated in the slow-inactivated state ([4]; 30 µM, photoactivated 365 nm 8 min then 312 nm 1 min) | Na+ channels in the slow-inactivated state ([4]; 30 µM, without light) | changes in steady-state activation or fast inactivation ([4]; pre-drug, drug, UV and washout conditions, (R)-5 40 µM, (R)-6 40 µM, (R)-7 30 µM) | reduction of peak inward Na+ current ([1]; 100 µM, CAD cells held at −80 mV, versus 0.1% DMSO) | slow inactivation observed at potentials more depolarized than ([2]; 100 µM) | fraction of Na+ current available at −50 mV ([2]; 100 µM, 5 s conditioning prepulse) | maximal fraction of current unavailable by depolarization ([2]; 100 µM, 20 mV as printed, control 0.62 ± 0.03) | V1/2 of steady-state fast inactivation ([3]; DMSO control −67.5 ± 1.0 mV, not different (p > 0.05)) | peak current lower than control by the last pulse [5] | fraction of current available at 8 s prepulse duration [6] | recovery of current amplitude at −10 mV after wash compared with pre-drug values ([4]; 100 µM, 10 min, 5-min wash) | effect on slow inactivation following the 5-min wash ([4]; 100 µM, 10 min at 37 °C, then 5-min wash, −50 mV) |
| --- | --- | --- | --- | --- | --- | --- | --- | --- | --- | --- | --- | --- | --- | --- | --- | --- | --- | --- |
| NC1=N[C@H](O)[C@H]2[C@H]3O[C@]4(O)O[C@@H]([C@@H](O)[C@@]2(N1)[C@@H]4O)[C@]3(O)CO [tetrodotoxin] | almost all of the current was blocked |  |  |  |  |  |  |  |  |  |  |  |  |  |  |  |  |  |
| COC[C@@H](NC(C)=O)C(=O)NCc1ccc(C2(C(F)(F)F)N=N2)cc1 [(R)-7] |  | 0.66 ± 0.05 | 7.1 fold | about 55% | about 10% | 87% | about 35% | 65% | no changes |  |  |  |  |  |  |  |  |  |
| COC[C@@H](NC(C)=O)C(=O)NCc1ccccc1 [(R)-1, (R)-N-benzyl 2-acetamido-3-methoxypropionamide] |  | 0.65 ± 0.08 |  |  |  |  |  |  |  | 40% | > −80 mV | 0.35 ± 0.01 fractional units | 0.26 ± 0.01 | −69.5 ± 1.3 mV | ~ 10% | 0.31 ± 0.01 | 74% | completely reversed |
